“And” between values parts separate entries of the source, which are not always exact repeats. Identical values can stand only once. Inconclusive results and toxic doses are left out. Rule for the calls: active = survival T/C of 150% or more; inactive = T/C below 125% in these data.
Tested on: CD2F1 mice, L1210 leukemia ip, survival T/C
Assay: NCI In Vivo Anticancer Drug Screen. Data for tumor model L1210 Leukemia (intraperitoneal) in CD2F1 (CDF1) mice
Details: endpoint: mean survival time, higher = longer survival
In short: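 Each value reflects a quotient of treated over vehicle control outcomes in mice with a transplanted tumor.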

[1] = dose: 100.0 mg/kg/injection, schedule: Q01DX009 (ip), vehicle: saline with Tween-80
[2] = dose: 200.0 mg/kg/injection, schedule: Q01DX009 (ip), vehicle: saline with Tween-80
[3] = dose: 400.0 mg/kg/injection, schedule: Q01DX009 (ip), vehicle: saline with Tween-80
[4] = dose: 100.0 mg/kg/injection, schedule: Q01DX001 (ip), vehicle: saline
[5] = dose: 200.0 mg/kg/injection, schedule: Q01DX001 (ip), vehicle: saline
[6] = dose: 400.0 mg/kg/injection, schedule: Q01DX001 (ip), vehicle: saline
[7] = dose: 100.0 mg/kg/injection, schedule: Q04DX003 (ip), vehicle: saline with Tween-80
[8] = dose: 200.0 mg/kg/injection, schedule: Q04DX003 (ip), vehicle: saline with Tween-80
[9] = dose: 400.0 mg/kg/injection, schedule: Q04DX003 (ip), vehicle: saline with Tween-80
[10] = dose: 100.0 mg/kg/injection, schedule: Q01DX001 (ip), vehicle: saline with Tween-80
[11] = dose: 200.0 mg/kg/injection, schedule: Q01DX001 (ip), vehicle: saline with Tween-80
[12] = dose: 400.0 mg/kg/injection, schedule: Q01DX001 (ip), vehicle: saline with Tween-80

Measured: T/C

CC(C)(C)CC(C)(C)SSc1n[nH]c(=S)s1
inactive: dose: 2.5 mg/kg/injection, schedule: Q04DX003 (ip), vehicle: Klucel (hydroxypropylcellulose) (HPC) 102 % of control | dose: 5.0 mg/kg/injection, schedule: Q04DX003 (ip), vehicle: Klucel (hydroxypropylcellulose) (HPC) 101 % of control | dose: 10.0 mg/kg/injection, schedule: Q04DX003 (ip), vehicle: Klucel (hydroxypropylcellulose) (HPC) 98 % of control and 101 % of control

Clc1ccc(OCCCCCNCCSSCCNCCCCCOc2ccc(Cl)cn2)nc1
inactive: dose: 75.0 mg/kg/injection, schedule: Q01DX001 (ip), vehicle: other 101 % of control | dose: 150.0 mg/kg/injection, schedule: Q01DX001 (ip), vehicle: other 103 % of control | dose: 300.0 mg/kg/injection, schedule: Q01DX001 (ip), vehicle: other 106 % of control

O=NN(CC(=O)N/N=C\c1ccc(Cl)cc1)CC(=O)N/N=C/c1ccc(Cl)cc1
inactive: [1] 91 % of control | [2] 94 % of control | [3] 96 % of control

Cc1ccc(Cl)c(I)c1
inactive: dose: 100.0 mg/kg/injection, schedule: Q01DX001 (ip), vehicle: Klucel (hydroxypropylcellulose) (HPC) 101 % of control | dose: 200.0 mg/kg/injection, schedule: Q01DX001 (ip), vehicle: Klucel (hydroxypropylcellulose) (HPC) 103 % of control | dose: 400.0 mg/kg/injection, schedule: Q01DX001 (ip), vehicle: Klucel (hydroxypropylcellulose) (HPC) 106 % of control

OCC1OC(Sc2cc(Cl)ccc2Cl)C(O)C(O)C1O (stereo unspecified)
inactive: [4] 103 % of control | [5] 100 % of control | [6] 100 % of control

CCC1(C)CC(=O)NC1=O (stereo unspecified)
inactive: dose: 75.0 mg/kg/injection, schedule: Q01DX001 (ip), vehicle: saline 98 % of control | dose: 150.0 mg/kg/injection, schedule: Q01DX001 (ip), vehicle: saline 104 % of control | dose: 300.0 mg/kg/injection, schedule: Q01DX001 (ip), vehicle: saline 96 % of control

CC1(C)OC2C3COP(=O)(N(CCCl)CCCl)NC(O3)C2O1 (stereo unspecified)
inactive: dose: 3.9 mg/kg/injection, schedule: Q01DX001 (ip), vehicle: distilled water + Tween-80 98 % of control | dose: 3.9 mg/kg/injection, schedule: Q01DX001 (ip), vehicle: distilled water + alcohol 103 % of control | dose: 7.8 mg/kg/injection, schedule: Q01DX001 (ip), vehicle: distilled water + Tween-80 98 % of control | dose: 7.8 mg/kg/injection, schedule: Q01DX001 (ip), vehicle: distilled water + alcohol 108 % of control | dose: 15.6 mg/kg/injection, schedule: Q01DX001 (ip), vehicle: distilled water + alcohol 98 % of control | dose: 31.2 mg/kg/injection, schedule: Q01DX001 (ip), vehicle: distilled water + Tween-80 98 % of control | dose: 31.2 mg/kg/injection, schedule: Q01DX001 (ip), vehicle: distilled water + alcohol 103 % of control | dose: 31.3 mg/kg/injection, schedule: Q01DX001 (ip), vehicle: distilled water + Tween-80 98 % of control | dose: 62.5 mg/kg/injection, schedule: Q01DX001 (ip), vehicle: distilled water + Tween-80 98 % of control | dose: 125.0 mg/kg/injection, schedule: Q01DX001 (ip), vehicle: distilled water + Tween-80 96 % of control | dose: 250.0 mg/kg/injection, schedule: Q01DX001 (ip), vehicle: distilled water + Tween-80 96 % of control | dose: 500.0 mg/kg/injection, schedule: Q01DX001 (ip), vehicle: distilled water + Tween-80 97 % of control

c1ccc(NC(Nc2ccccn2)c2ccncc2)nc1
inactive: dose: 54.25 mg/kg/injection, schedule: Q04DX003 (ip), vehicle: saline with Tween-80 97 % of control | [7] 102 % of control | dose: 108.5 mg/kg/injection, schedule: Q04DX003 (ip), vehicle: saline with Tween-80 103 % of control | [8] 108 % of control | dose: 217.0 mg/kg/injection, schedule: Q04DX003 (ip), vehicle: saline with Tween-80 102 % of control | [9] 110 % of control | dose: 434.0 mg/kg/injection, schedule: Q04DX003 (ip), vehicle: saline with Tween-80 100 % of control | dose: 600.0 mg/kg/injection, schedule: Q04DX003 (ip), vehicle: saline with Tween-80 113 % of control

CC1COC(Nc2cccc3c2CCCC3)=N1 (stereo unspecified)
inactive: dose: 12.5 mg/kg/injection, schedule: Q04DX003 (ip), vehicle: saline with Tween-80 97 % of control | dose: 25.0 mg/kg/injection, schedule: Q04DX003 (ip), vehicle: saline with Tween-80 97 % of control | dose: 50.0 mg/kg/injection, schedule: Q04DX003 (ip), vehicle: saline with Tween-80 97 % of control

[Cl][Ga]([Cl])[Cl]
inactive: dose: 50.0 mg/kg/injection, schedule: Q04DX003 (ip), vehicle: saline 96 % of control | [4] 92 % of control | dose: 100.0 mg/kg/injection, schedule: Q04DX003 (ip), vehicle: saline 108 % of control | [5] 95 % of control

CN(C)c1ncnc2c1ncn2-c1cccc(-n2cnc3c(N(C)C)ncnc32)c1
inactive: dose: 1.25 mg/kg/injection, schedule: Q01DX005 (ip), vehicle: other 103 % of control | dose: 2.5 mg/kg/injection, schedule: Q01DX005 (ip), vehicle: other 88 % of control | dose: 5.0 mg/kg/injection, schedule: Q01DX005 (ip), vehicle: other 92 % of control | dose: 10.0 mg/kg/injection, schedule: Q01DX005 (ip), vehicle: other 92 % of control | dose: 20.0 mg/kg/injection, schedule: Q01DX005 (ip), vehicle: other 88 % of control

CCCCOC(=O)C(C(=O)OCCCC)(C(=O)OCCCC)C(C(=O)OCCCC)(C(=O)OCCCC)C(=O)OCCCC
inactive: [4] 90 % of control | [6] 96 % of control

CC(=O)N1CCN(C(C)=O)c2ccccc21
inactive: [7] 101 % of control | [8] 101 % of control | [9] 93 % of control

CCN(CC)CCCC(C)NC(C)CCCN(CC)CC (stereo unspecified)
inactive: dose: 25.0 mg/kg/injection, schedule: Q01DX009 (ip), vehicle: Klucel (hydroxypropylcellulose) (HPC) 95 % of control | dose: 50.0 mg/kg/injection, schedule: Q01DX009 (ip), vehicle: Klucel (hydroxypropylcellulose) (HPC) 95 % of control

FCCc1ccc(F)cc1
inactive: [10] 101 % of control | dose: 100.0 mg/kg/injection, schedule: Q04DX003 (ip), vehicle: saline sonified 93 % of control | [11] 100 % of control | dose: 200.0 mg/kg/injection, schedule: Q04DX003 (ip), vehicle: saline sonified 100 % of control | [12] 101 % of control | dose: 400.0 mg/kg/injection, schedule: Q04DX003 (ip), vehicle: saline sonified 98 % of control

CC(=O)/C(=C\c1ccccc1)CNC1CCCCC1
inactive: dose: 6.25 mg/kg/injection, schedule: Q01DX001 (ip), vehicle: saline with Tween-80 96 % of control | dose: 12.5 mg/kg/injection, schedule: Q01DX001 (ip), vehicle: saline with Tween-80 104 % of control

O=C1C=C(C2CCCCC2)C(=O)c2ccccc21
inactive: [1] 88 % of control | [7] 98 % of control | [2] 91 % of control | [8] 92 % of control | [3] 95 % of control | [9] 95 % of control

CCOC(=O)Cc1nc2ccccc2[nH]1
inactive: [10] 95 % of control | dose: 100.0 mg/kg/injection, schedule: Q04DX002 (ip), vehicle: saline with Tween-80 101 % of control | [7] 90 % of control and 102 % of control | [11] 95 % of control | dose: 200.0 mg/kg/injection, schedule: Q04DX002 (ip), vehicle: saline with Tween-80 93 % of control | [8] 93 % of control and 97 % of control | [12] 93 % of control | dose: 400.0 mg/kg/injection, schedule: Q04DX002 (ip), vehicle: saline with Tween-80 95 % of control | [9] 91 % of control

N=C(N=c1cc(C(=O)NC(=N)NC(=N)Nc2ccc(Cl)cc2)n(C(=N)NC(=N)Nc2ccc(Cl)cc2)c(C(=O)NC(=N)NC(=N)Nc2ccc(Cl)cc2)c1)NC(=N)Nc1ccc(Cl)cc1
inactive: [7] 98 % of control | [8] 100 % of control | [9] 100 % of control

CCOCCNc1ccc(S(=O)(=O)c2ccc(N)cc2)cc1N
inactive: dose: 100.0 mg/kg/injection, schedule: Q01DX009 (ip), vehicle: saline 103 % of control | dose: 200.0 mg/kg/injection, schedule: Q01DX009 (ip), vehicle: saline 92 % of control | dose: 400.0 mg/kg/injection, schedule: Q01DX009 (ip), vehicle: saline 92 % of control
